Some results are limits rather than exact numbers.

Here are results for ten molecules from ChEMBL document CHEMBL1141454, “Structural and functional basis of cyclooxygenase inhibition” (J Med Chem, 2007).

The nature of experiment [1]: Inhibition of mouse COX2 R120A mutant.
The nature of experiment [2]: Inhibition of mouse COX2 Y355F mutant.
Experiment [3] in a line: Inhibition of mouse COX2 S530A mutant.
Experiment [4] has as its target Prostaglandin G/H synthase 1 (Homo sapiens, UniProt P23219).
Experiment [5] can be described thus: Inhibition of cyclooxygenase.
Experiment [6] is described as follows: Selectivity for COX1 over COX2.
The species entered for experiment [7] is Mus musculus. Nature of the experiment: Inhibition of mouse COX2 V349A mutant.
For experiment [8], the species on record is Mus musculus. The experiment is described as follows: Inhibition of mouse COX2 V349L mutant.
For experiment [9], the target named is T1, Prostaglandin G/H synthase 2 (Homo sapiens, UniProt P35354).
T1 sequence (P35354 whole entry): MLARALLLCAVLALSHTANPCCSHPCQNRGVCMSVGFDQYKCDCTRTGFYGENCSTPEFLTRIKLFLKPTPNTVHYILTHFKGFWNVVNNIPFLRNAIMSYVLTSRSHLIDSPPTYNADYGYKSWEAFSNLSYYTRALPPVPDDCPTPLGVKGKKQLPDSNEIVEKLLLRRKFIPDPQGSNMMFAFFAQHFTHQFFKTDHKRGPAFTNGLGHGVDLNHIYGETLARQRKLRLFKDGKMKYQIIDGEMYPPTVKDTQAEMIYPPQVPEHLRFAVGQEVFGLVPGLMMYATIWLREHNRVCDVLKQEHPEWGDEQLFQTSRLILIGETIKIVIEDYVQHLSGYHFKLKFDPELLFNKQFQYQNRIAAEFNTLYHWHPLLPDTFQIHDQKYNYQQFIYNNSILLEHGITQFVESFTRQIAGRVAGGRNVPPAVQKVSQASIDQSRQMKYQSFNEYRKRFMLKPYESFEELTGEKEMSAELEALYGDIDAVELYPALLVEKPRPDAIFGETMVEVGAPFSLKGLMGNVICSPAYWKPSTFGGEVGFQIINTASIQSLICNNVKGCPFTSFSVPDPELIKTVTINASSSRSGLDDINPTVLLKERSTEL

Chain of Prostaglandin G/H synthase 1 (P23219 whole entry): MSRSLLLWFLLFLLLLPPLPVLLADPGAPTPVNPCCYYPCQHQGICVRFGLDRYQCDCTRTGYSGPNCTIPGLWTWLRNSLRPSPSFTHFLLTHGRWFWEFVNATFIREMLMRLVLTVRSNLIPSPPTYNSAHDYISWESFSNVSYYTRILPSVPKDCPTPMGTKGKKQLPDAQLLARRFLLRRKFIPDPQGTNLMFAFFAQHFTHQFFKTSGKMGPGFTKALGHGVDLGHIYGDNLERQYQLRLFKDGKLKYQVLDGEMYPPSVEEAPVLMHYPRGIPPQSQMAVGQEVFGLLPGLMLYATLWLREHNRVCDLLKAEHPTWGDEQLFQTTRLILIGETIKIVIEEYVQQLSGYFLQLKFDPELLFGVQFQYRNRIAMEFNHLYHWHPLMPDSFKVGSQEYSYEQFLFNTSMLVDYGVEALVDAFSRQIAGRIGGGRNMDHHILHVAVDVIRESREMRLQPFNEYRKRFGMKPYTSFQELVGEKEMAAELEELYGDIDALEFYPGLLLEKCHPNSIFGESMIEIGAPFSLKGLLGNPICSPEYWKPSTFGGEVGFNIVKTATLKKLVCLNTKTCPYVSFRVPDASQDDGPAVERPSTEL

On to `O=C(O)Cc1ccccc1Nc1c(Cl)cccc1Cl` [DICLOFENAC], for which the results for the IC50 in experiment [1], in [2] and in [3] were 257 nM, 137 nM and greater than 50 µM, respectively.
In turn, `COc1ccc2c(c1)c(CCNC(=O)c1ccc(Cl)cc1)c(C)n2Cc1ccc(Br)cc1` showed an IC50 in experiment [4] greater than 66 µM.
Regarding `CC(=O)Oc1ccccc1C(=O)O` [ASPIRIN], in experiment [5], affinity was put at a Ki of 20 mM. For the same molecule, the Selectivity ratio in experiment [6] was 10.
Take `COc1ccc2c(c1)c(CC(=O)O)c(C)n2C(=O)c1ccc(Cl)cc1`: the Activity in the experiment listed under Mus musculus [7] was 0.08 µM; in the experiment filed under Mus musculus [8], 4 µM.
As for `COc1ccc2c(c1)c(CC(=O)NCCc1ccccc1)c(C)n2C(=O)c1ccc(Cl)cc1`, the IC50 in experiment [4] is greater than 66 µM.
Take `C/C(=N/OCc1ccccc1Nc1c(Cl)cccc1Cl)C(=O)O`: the IC50 in experiment [9] was 100 nM; in experiment [4], greater than 1 µM.
The like results for `CCOc1cccc(OCC)c1-c1ccc(C(C)C(=O)O)cc1F` (configuration not stated) were, in that order, 100 nM and 7.7 µM.
`COc1ccc2c(c1)c(CCOC(=O)c1ccc(Cl)cc1)c(C)n2Cc1ccc(Br)cc1` registered a half-inhibitory concentration (IC50) in experiment [4] greater than 66 µM.
For the molecule `Cc1ccc(Nc2c(F)cccc2Cl)c(CC(=O)O)c1` [LUMIRACOXIB], the 50% inhibitory concentration (IC50) in [9] was 7 nM; in experiment [4], greater than 10 µM.
For the molecule `COc1ccc2c(c1)c(CC(=O)OCCc1ccccc1)c(C)n2C(=O)c1ccc(Cl)cc1`, the IC50 in experiment [4] is greater than 66 µM.

Broadly, the IC50 is the concentration needed to halve the response being measured. A low value points to inhibition by little substance. What is called Ki is the equilibrium dissociation constant of an inhibitor or competing ligand from its target. The low end stands for tighter binding, the high end for weaker binding.
